The values below come from US7314729B2, “Methods and kits for transferases” (Promega Corp., priority 2002, dated 2008).

For orientation: IC50 means the concentration that inhibits the measured activity by half.

Common to all, as to type: biochemical
For assay [1], the target named is T1, catalytic subunit of cAMP-dependent protein kinase (PKA) (Bos taurus, UniProt P00517).
T1 construct: purchased Promega Corp., Madison, Wis
Description: PKA kinase assay with inhibitors (bis-kemptide R110 substrate, Aminopeptidase M, fluorescence). As to conditions: 0.5 units PKA, 5 μM bis-kemptide, 50 μM ATP; FIG. 2.
Description: The kinase activity of the catalytic subunit of cAMP-dependent protein kinase (PKA) from Promega Corp., Madison, Wis. was tested in triplicate in a 96-well plates using the following reaction components: 40 mM Tris-HCl, pH 7.5, 20 mM MgCl2, 0.1 mg/ml bovine serum albumin (BSA), 50 μM ATP, and 5 μM of LRRASLG (SEQ. ID. NO: 1)-R110—GLSARRL, a bis-rhodamine peptide kinase substrate also known as “bis-kemptide.” The final reaction volume was 50 uL. […] All kinase reactions were incubated at room temperature for 20 minutes.
The kinase reactions were terminated by adding a termination/detection reagent (25 ul) containing 100 mM EDTA and 25 mU aminopeptidase M (Calbiochem, San Diego, Calif.).
Enzymatic activity of the kinase was measured by taking a reading of the fluorescence, at the time of addition of actinonin and 3 hrs later to test the stability of the signal, with an excitation at 480 nm and fluorescence emission at 520-530 nm.
PKA Assay With Inhibitors. The effects of various inhibitors of PKA kinase were tested.
Fluorescence was detected with an excitation of 480 nm and fluorescence emission at 520-530 nm.

Assay [2] concerns the target T2, serine/threonine phosphatase PP2A (Homo sapiens, UniProt P67775).
T2 construct: purchased Promega (Madison, Wis.)
Description: PP2A phosphatase assay with inhibitors (bis-STP-R110 phosphopeptide, Aminopeptidase M). As for the experimental part: PP2A activity with STP-R-110. The phosphatase activity of phosphatase 2A (PP2A) was carried out in 50 ul volume containing 5 uM of phosphopeptide substrate bis-STP-R110 (RRAT(PO3)VA (SEQ. ID. NO:5)-R110-[…]), 40 mM Tris-HCl, pH 7.5, and 0.1 mg/ml BSA. Phosphatase reactions were initiated by adding the enzyme serine/threonine phosphatase PP2A from Promega (Madison, Wis.). The amount of PP2A added to each reaction was titrated in ½ increments, in a range from 0.0075 ng (0.015 munits) to 7.5 nanograms (15 munits), plus control reactions containing no enzyme. Phosphatase reactions were carried out for 10 minutes at room temperature in 96-well plates.
Phosphatase reactions were terminated with 25 ul of 2 uM okadaic acid ((9,10-Deepithio-9,10-didehydroacanthifolicin) (sodium salt)), a known inhibitor of PP2A. After termination, 25 mU/well of Aminopeptidase M was added in 40 mM Tris buffer, pH 7.5, 0.1 mg/ml BSA. The aminopeptidase reaction was incubated at room temperature, 25° C., for 90 minutes. Fluorescence was read as in Example 1.

Assay [3] deals with T3, tyrosine phosphatase PTP-1B (Homo sapiens, UniProt P18031).
T3 sequence (P18031 1-435): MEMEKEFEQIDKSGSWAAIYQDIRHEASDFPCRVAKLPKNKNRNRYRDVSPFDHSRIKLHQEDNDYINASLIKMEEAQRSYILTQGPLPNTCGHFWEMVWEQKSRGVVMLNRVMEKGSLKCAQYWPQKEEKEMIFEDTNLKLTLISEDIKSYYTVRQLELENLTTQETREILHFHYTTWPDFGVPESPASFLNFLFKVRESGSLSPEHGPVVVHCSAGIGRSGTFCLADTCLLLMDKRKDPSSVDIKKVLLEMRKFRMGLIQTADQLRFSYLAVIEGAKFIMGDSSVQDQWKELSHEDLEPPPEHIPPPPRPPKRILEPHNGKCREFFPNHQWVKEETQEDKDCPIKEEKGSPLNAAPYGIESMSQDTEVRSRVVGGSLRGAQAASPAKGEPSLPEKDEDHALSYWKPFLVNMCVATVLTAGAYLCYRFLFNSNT
Put plainly: PTP-1B phosphatase assay with inhibitors (bis-PTK5p-R110 phosphopeptide, Aminopeptidase M). As to conditions: 25 mU/well PTP-1B, inhibitor zero up to 50 uM; FIG. 10.
Description: The effect of various inhibitors were tested on the dephosphorylation of bis-PTK5p-R110 by the enzyme tyrosine phosphatase PTP-1B. […] Inhibitors were included in the reactions at concentrations ranging from zero inhibitor up to 50 uM. Phosphatase reactions were initiated by adding PTB-1B, which was added to each reaction at 25 mU/well. Control reactions containing no enzyme were also run.
Phosphatase reactions were terminated with 25 ul of a solution of Na3VO4 and 25 mU/well of Aminopeptidase M. Reactions were incubated at room temperature for 60 minutes.

T2 sequence (P67775 whole entry): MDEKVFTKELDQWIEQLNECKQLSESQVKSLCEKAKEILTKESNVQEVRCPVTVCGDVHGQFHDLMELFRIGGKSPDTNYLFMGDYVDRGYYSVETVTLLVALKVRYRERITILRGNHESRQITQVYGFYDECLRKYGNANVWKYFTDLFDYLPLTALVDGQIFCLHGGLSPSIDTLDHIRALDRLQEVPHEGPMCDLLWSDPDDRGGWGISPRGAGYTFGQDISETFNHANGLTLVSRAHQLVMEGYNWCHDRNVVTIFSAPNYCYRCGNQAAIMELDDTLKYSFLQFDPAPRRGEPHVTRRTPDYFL

Turning to `CC1CNCCN1S(=O)(=O)c1cccc2cnccc12` (stereo not drawn) [H7, 1-(5-isoquinolinesulfonyl)-2-methylpiperzine], the “effect on kinase activity of PKA (fluorescence output with increasing inhibitor concentration)” value in assay [1] was “without effect”.
As to `N#CC(=C(N)Sc1ccccc1N)C(C#N)=C(N)Sc1ccccc1N` [U0126, 1,4-diamino-2,3-dicyano-1,4-bis-(2-aminophenylthio)butadiene], in assay [1], the “effect on kinase activity of PKA (fluorescence output with increasing inhibitor concentration)” value is given as “without effect”.
With `C=C1[C@@H](O)[C@@H]2O[C@]3(CC[C@H](/C=C/[C@@H](C)[C@@H]4CC(C)=C[C@@]5(O[C@H](C[C@@](C)(O)C(=O)O)CC[C@H]5O)O4)O3)CC[C@H]2O[C@@H]1[C@@H](O)C[C@H](C)[C@H]1O[C@@]2(CCCCO2)CC[C@H]1C` [okadaic acid, 9,10-Deepithio-9,10-didehydroacanthifolicin], in assay [2], the IC50 is under 1 nM. Further, the “inhibition of dephosphorylation of the substrate by PP2A” value in assay [2] (2 nanograms PP2A (4 munits), 5 uM phosphopeptide substrate, inhibitor zero up to 100 nM, FIG. 7) was “inhibited”.
As to `CN[C@@H]1C[C@H]2O[C@@](C)([C@@H]1OC)n1c3ccccc3c3c4c(c5c6ccccc6n2c5c31)C(=O)NC4` [staurosporin, (9S-(9α,10,11β,13α)-2,3,10,11,12,13-Hexahydro-10-methoxy-9-methyl-[1-(methylamino)-epoxy-1H,9H-diindolo[1,2,3-gh:3′,2′,1′-1m]pyrrolo{3,4-j]][1,7]benzodiazonin-1-one)], in assay [3], the “inhibition of dephosphorylation of bis-PTK5p-R110 by PTP-1B” value is “had no effect”.
With Sodium vanadate [Na3VO4], the “inhibition of dephosphorylation of bis-PTK5p-R110 by PTP-1B” value in assay [3] is reported as “inhibition of PTP 1B enzyme activity”.
